# Experimental data reported in patent publication US9353090B2, “Heterocyclic carboxylic acids as activators of soluble guanylate cyclase” (Boehringer Ingelheim International GmbH, priority 2014, dated 2016).
# What was measured:
# physchem = details: kinetic from dmso stock
# [1] = Human liver microsome (HLM) metabolic stability assay; assay type: in vitro ADME; details: human liver microsomes
# Description: The 5 time point, high-throughput human liver microsome (HLM) metabolic stability assay is designed to determine in vitro compound metabolism. Compounds are incubated with HLMs at a concentration of 1 uM, at 37° C., for a total of 60 min. The percent of compound remaining at 5, 15, 30, and 60 min is used to calculate the t1/2 (min), CLint (mL/min/kg), CLh (mL/min/kg), and % Qh. The assay is based on a 96-well format and can accommodate up to 92 compounds per plate (n=1).
# Using the 96-well multi-channel head, the Biomek FX, equipped with a Peltier heating block/shaker, is programmed to accomplish the following steps: • 1. Pipette 175 uL of 1.15 mg/mL microsomes into each of the 96 conical inserts (Analytical Sales and Products, catalog number 96PL05) that fit into the plate of the Peltier heating block/shaker (the incubation plate) • 2. Add 5 uL of compounds from the assay plate to the microsomes and shake the mixture at 600 rpm at 42.1° C. for 10 min (a setting of 42.1° C. on the Peltier is required for the samples to incubate at 37° C.) • 3. After 10 min, prompt the user to add the NADPH plate to the deck and add 20 uL from the NADPH plate to the incubation plate to start the reaction • 4. Add 215 uL of 100%, cold acetonitrile containing an internal standard(s) to a 0 minute, 5 minute, 15 minute, 30 minute, and 60 minute “quench” plate • 5. At 0 min, 5 min, 15 min, 30 min, and 60 min into the incubation, aspirate 12 uL from the incubation mixture and add it to the quench solution to stop the reaction • 6. Add 185 uL HPLC grade water to each well of the 0, 5, 15, 30 and 60 minute quench plates to dilute compounds to the appropriate concentration for the mass spectrometer
# After all time points are collected, the quench plates are sealed with 96-well pierceable plate mats or heat sealing foil and centrifuged at 3000 rpm for 15 min to pellet the microsomes.
# The plates are analyzed using LC/MS/MS with electron spray ionization (ESI) and the previously determined MRM transitions. The LC method includes the following parameters:
# Using an Excel template in Activitybase, the peak areas corresponding to 5, 15, 30 and 60 min are compared to the peak area at 0 min to calculate the percent of remaining compound using the following equation:
# Percent compound remaining=(AUC at Time t min/AUC at Time 0 min)×100 where t=0, 5, 15, 30 or 60 min.
# Time (min) is plotted against the natural logarithm (Ln) of the percent compound remaining to determine the slope. The slope is used to calculate t1/2 (min) using the equation, t1/2=0.693/slope.
# Clh, Hepatic clearance • Hepatic flow*f(u)*Clint/(hepatic flow+f(u)*Clint)
# Qh, % Hepatic blood flow • (Clh/Hepatic flow)*100
# Preferred compounds have % Qh values of less than 24.
# [2] = target: human soluble guanylate cyclase alpha 1 and beta 1 subunits (sGC) (Homo sapiens (Human), UniProt Q02108+Q02153); experiment: sGC cellular activator assay (cGMP, HTRF), in the presence and absence of 50% human serum; assay type: cell-based; details: CHO cells stably expressing human sGC alpha 1/beta 1, preincubated with 40 microM ODQ; cGMP by HTRF; Table 2 does not state whether with or without 50% human serum
# Description: The sGC cellular activator assay is performed in the presence and absence of 50% human serum (HS) using Chinese hamster ovary cells that have been stably transfected to express the human soluble guanylate cyclase alpha 1 and beta 1 subunits (sGC). Cells are preincubated with 40 microM 1H-[1,2,4]oxadiazolo[4,3-a]quinoxalin-1-one (ODQ), an sGC inhibitor, for one h in buffer containing 0.1% bovine serum albumin and 3-isobutyl-1-methylxanthine (IBMX). Concentration response curves are prepared for test compounds in DMSO. An intermediate dilution of the compounds is performed in either buffer containing IBMX or type AB HS containing IBMX. Diluted compounds are added to cells and they are incubated at room temperature for thirty min. cGMP is measured using a CisBio homogeneous time resolved fluorescence kit and the EC50 is calculated for each compound.
# Representative compounds of the present invention were tested for activity the above assay. Preferred compounds have an EC50 of <1,000 nM in the above assay and more preferred compounds have an EC50<200 nM.
# [3] = pH 2.2, aqueous buffer, Solubility (pH 2.2)
# [4] = pH 4.5, aqueous buffer, Solubility (pH 4.5)
# [5] = pH 6.8, aqueous buffer, Solubility (pH 6.8)
# human soluble guanylate cyclase alpha 1 and beta 1 subunits (sGC), sequence (Q02108 whole entry partner): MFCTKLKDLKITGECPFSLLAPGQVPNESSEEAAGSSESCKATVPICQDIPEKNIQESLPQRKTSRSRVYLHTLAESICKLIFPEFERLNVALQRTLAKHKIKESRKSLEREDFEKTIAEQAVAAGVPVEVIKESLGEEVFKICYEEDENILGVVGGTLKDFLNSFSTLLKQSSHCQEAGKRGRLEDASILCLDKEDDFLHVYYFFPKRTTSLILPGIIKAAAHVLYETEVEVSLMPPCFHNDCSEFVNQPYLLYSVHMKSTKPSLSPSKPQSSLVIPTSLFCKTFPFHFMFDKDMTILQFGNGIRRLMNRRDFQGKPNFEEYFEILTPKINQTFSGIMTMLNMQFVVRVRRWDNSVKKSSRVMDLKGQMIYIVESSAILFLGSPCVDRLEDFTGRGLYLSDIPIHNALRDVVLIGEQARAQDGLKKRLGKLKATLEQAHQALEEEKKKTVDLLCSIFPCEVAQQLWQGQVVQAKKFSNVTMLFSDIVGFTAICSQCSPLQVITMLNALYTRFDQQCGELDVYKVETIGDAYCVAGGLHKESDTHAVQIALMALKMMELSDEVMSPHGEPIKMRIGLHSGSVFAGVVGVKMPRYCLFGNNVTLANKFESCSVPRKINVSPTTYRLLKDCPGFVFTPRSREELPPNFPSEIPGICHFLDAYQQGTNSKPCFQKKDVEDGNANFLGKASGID
# human soluble guanylate cyclase alpha 1 and beta 1 subunits (sGC), sequence (Q02153 whole entry): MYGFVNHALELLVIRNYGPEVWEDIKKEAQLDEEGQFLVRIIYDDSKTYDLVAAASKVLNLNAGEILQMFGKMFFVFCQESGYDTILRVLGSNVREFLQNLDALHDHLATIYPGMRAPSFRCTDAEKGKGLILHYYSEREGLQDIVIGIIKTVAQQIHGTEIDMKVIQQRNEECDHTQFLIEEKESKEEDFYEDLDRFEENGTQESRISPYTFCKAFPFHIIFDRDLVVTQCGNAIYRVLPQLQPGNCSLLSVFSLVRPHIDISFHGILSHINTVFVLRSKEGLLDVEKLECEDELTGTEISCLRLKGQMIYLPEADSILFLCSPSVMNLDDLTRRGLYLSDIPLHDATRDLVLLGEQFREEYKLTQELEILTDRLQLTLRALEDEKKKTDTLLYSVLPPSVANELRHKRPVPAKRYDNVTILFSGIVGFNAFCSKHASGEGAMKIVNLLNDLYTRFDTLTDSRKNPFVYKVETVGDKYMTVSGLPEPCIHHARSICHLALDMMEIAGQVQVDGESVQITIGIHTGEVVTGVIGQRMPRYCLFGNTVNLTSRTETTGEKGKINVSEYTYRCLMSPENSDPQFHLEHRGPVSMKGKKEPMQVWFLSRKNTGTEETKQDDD
solubility at 24 h (physchem; [3]) [µg/mL],solubility at 24 h (physchem; [4]) [µg/mL],solubility at 24 h (physchem; [5]) [µg/mL],"Metabolic stability (Qh %), % hepatic blood flow [1] [%]",EC50 [2] [nM],SMILES
149,119,88.5,<24,160,COCc1cc(COc2c(C)cccc2-c2cccc(N3CC[C@H](C(=O)O)[C@H](OC)C3)n2)cc2c1CN(C1CCOCC1)CC2 [Compound 286]
120,7.7,0.49,<24,6,Cc1ccc(OCc2cc(C)c3c(c2C)CCN(C2CCOC2)C3)c(-c2csc(N3CC[C@@]4(C(=O)O)C[C@H]4C3)n2)c1 (stereo partly shown) [Compound 129]
100,71,51,32,67,Cc1cccc(-c2csc(N3C[C@@H]4C[C@]4(C(=O)O)C3)n2)c1OCc1ccc2c(c1C)CCN(C1CCC1)C2 [Compound 137]
130,90,79,<24,5,CCc1cc(COc2c(C)cccc2-c2csc(N3CC[C@@H](C(=O)O)[C@@H](OC)C3)n2)cc2c1CN(C1CCOCC1)CC2 [Compound 170]
91.2,88.9,88.1,<24,578,CCO[C@@H]1CN(c2nccc(-c3cccc(C)c3OCc3cc4c(c(OC)c3)CN(C3CCOCC3)CC4)n2)CC[C@@H]1C(=O)O [Compound 248]
146,142,137,<24,263,COC[C@H]1N(c2cccc(-c3cc(C)ccc3OCc3cc(C)c4c(c3)CCN(C3CCOCC3)C4)n2)C[C@@H]2C[C@@]21C(=O)O [Compound 219]
> 160,> 160,91,30,30,CO[C@@H]1CN(c2cccc(-c3cc(C)ccc3OCc3ccc4c(c3C)CCN(C3CCOCC3)CC4)n2)CC[C@@H]1C(=O)O [Compound 81]
120,55,19,42,3,Cc1cc(COc2c(C)cccc2-c2csc(N3CC[C@@]4(C(=O)O)C[C@H]4C3)n2)cc2c1CN(C1CCCOC1)CC2 (stereo partly shown) [Compound 94]
120,52,55,29,28,Cc1cccc(-c2csc(N3CC[C@@]4(C(=O)O)C[C@H]4C3)n2)c1OCc1ccc2c(c1)CCN(C1COC1)C2 [Compound 85]
155,90.7,66.6,36,6,COc1cc(COc2c(Cl)cccc2-c2cccc(N3CC[C@@H](C(=O)O)[C@@H](OC)C3)n2)cc2c1CN(C1CCOCC1)CC2 [Compound 251]
130,2.8,1.8,<24,44,Cc1ccc(OCc2cc(C)c3c(c2C)CCN(C2COC2)C3)c(-c2csc(N3CC[C@@]4(C(=O)O)C[C@H]4C3)n2)c1 [Compound 126]
110,93,68,<24,4,Cc1cccc(-c2cccc(N3C[C@@H]4C[C@]4(C(=O)O)C3)n2)c1OCc1ccc2c(c1C)CCN(C1CCOCC1)CC2 [Compound 33]
120,95,82,<24,12,COC[C@H]1N(c2cccc(-c3cccc(C)c3OCc3cc(C)c4c(c3)CCN(C3COC3)C4)n2)C[C@@H]2C[C@@]21C(=O)O [Compound 49]
120,100,79,<24,6,COC[C@H]1N(c2cccc(-c3cccc(C)c3OCc3ccc4c(c3C)CCN(C3COC3)CC4)n2)C[C@@H]2C[C@@]21C(=O)O [Compound 60]
115,60.6,46.4,26,4,CO[C@H]1CN(c2nc(-c3cccc(Cl)c3OCc3ccc4c(c3)[C@H](C)CN(C3CCOCC3)CC4)cs2)CC[C@H]1C(=O)O [Compound 320]
109,80.5,79.2,<24,,CO[C@H]1CN(c2nc(-c3cccc(C)c3OCc3cc(C)c4c(c3)CCN(C3CCOCC3)CC4)cs2)CC[C@H]1C(=O)O [Compound 295]
157,154,146,48,,Cc1csc(CN2CCc3c(ccc(COc4ccccc4-c4cccc(N5CC[C@@]6(C(=O)O)C[C@H]6C5)n4)c3C)C2)n1 [Compound 304]
,,,,17,CO[C@H]1CN(c2nc(-c3cc(C)ccc3OCc3ccc4c(c3C)CCN(C[C@H]3CCOC3)C4)cs2)CC[C@H]1C(=O)O [Compound 179]
,,,52,22,Cc1ccc(OCc2ccc3c(c2)CCN(C2CCOCC2)C3=O)c(-c2cccc(N3CC[C@@]4(C(=O)O)C[C@H]4C3)n2)c1 [Compound 193]
,,,,68,Cc1ccc(OCc2ccc3c(c2)CCN(C2CCOCC2)C3)c(-c2csc(N3C[C@H]4CC[C@@H](C3)[C@H]4C(=O)O)n2)c1 [Compound 184]
109,68.3,66.7,,10,CO[C@H]1CN(c2nc(-c3cccc(Cl)c3OCc3ccc4c(c3)CCN(C3CCOCC3)C[C@H]4C)cs2)CC[C@H]1C(=O)O [Compound 333]
93,73.7,5.2,,5,COCC(C)N1CCc2c(ccc(COc3ccccc3-c3cccc(N4CC[C@@]5(C(=O)O)C[C@H]5C4)n3)c2C)C1 (stereo partly shown) [Compound 310]
,,,42,80,Cc1ccc(OCc2ccc3c(c2)CCN(C2CCC(F)(F)CC2)C3)c(-c2csc(N3C[C@H]4CC[C@@H](C3)[C@H]4C(=O)O)n2)c1 [Compound 183]
,,,<24,23,CCO[C@H]1CN(c2nccc(-c3cccc(C)c3OCc3cc(C)c4c(c3)CCN(C3CCOCC3)C4)n2)CC[C@H]1C(=O)O [Compound 245]
,,,<24,659,CCO[C@@H]1CN(c2nccc(-c3cccc(C)c3OCc3cc(C)c4c(c3)CCN(C3CCOCC3)C4)n2)CC[C@@H]1C(=O)O [Compound 247]
,,,,80,Cc1cccc(-c2cccc(N3CC[C@@H](C(=O)O)[C@H]4OCCC[C@@H]43)n2)c1OCc1ccc2c(c1C)CCN(C1CCOCC1)CC2 [Compound 335]
108,77.7,77.9,<24,,CO[C@H]1CN(c2nc(-c3cccc(C)c3OCc3cc(C)c4c(c3)CCN(C3COC3)CC4)cs2)CC[C@H]1C(=O)O [Compound 294]
